Measurements: patent US20010046504A1, “CYCLOPHOSPHAMIDE FILM-COATED TABLETS” (priority 1998, published 2001)

Assay type: physicochemical
Procedure: Investigations on the Compatibility of Cyclophosphamide with Various Tableting Auxiliaries […] The pressed tablets were stored at 31° C. for 6 months. The decomposition of the active compound was carried out [sic] by means of chloride determination.

Preswollen starch [Auxiliary 9]
Stability of cyclophosphamide in the presence of auxiliary (in words): somewhat indifferent
